Publication PMC2892419 (Biochemistry, 2010)

Key:
[1] = test system: Sgx9236b; assay: direct UV assay of deamination, […] nm; assay type: biochemical, Unknown prokaryotic organism (Sargasso Sea metagenome); settings: pH 8.5, 30 °C
[2] = test system: Sgx9236b; assay: direct UV assay of deamination, […] nm; assay type: biochemical, Unknown prokaryotic organism (Sargasso Sea metagenome); settings: pH 8.5, 30 °C; remark: listed apart in the source

Km [2] [µM]	Compound	Km [1] [µM]
–	Nc1nc2[nH]c(=O)cnc2c(=O)[nH]1 [I, isoxanthopterin]	50 ± 10
90 ± 30	Nc1nc2ncc(C(=O)O)nc2c(=O)[nH]1 [II, pterin-6-carboxylate]	–
